Source: ChEMBL document CHEMBL2176989, “Design, synthesis, and pharmacological evaluation of piperidin-4-yl amino aryl sulfonamides: novel, potent, selective, orally active, and brain penetrant 5-HT₆ receptor antagonists” (J Med Chem, 2012)
Active and inactive are the calls of the source. The calls are words filed in the database; no cut-off is given here.

What was measured:
[1] = target: Voltage-gated inwardly rectifying potassium channel KCNH2 (Homo sapiens, UniProt Q12809); assay: Displacement of [3H]astemizole from human ERG by microbeta scintillation counting
Rattus norvegicus [2] = assay: Toxicity in po dosed Wistar rat assessed as phospholipidosis in multiple organs administered as repeated dose for 7 days; type: organism-based; conditions: in vivo, 168 h
Rattus norvegicus [3] = assay: Procognitive activity in Wistar rat assessed as reversal of time delay induced-memory deficit at 3 mg/kg, po by object recognition test; type: functional, organism-based; design: dose 3 mg/kg
Rattus norvegicus [4] = assay: Procognitive activity in Wistar rat assessed as reversal of time delay induced-memory deficit at 1 mg/kg, po by object recognition test; type: functional, organism-based; design: dose 1 mg/kg
[5] = AUC (0 to 24 hrs) in fasted Wistar rat at 10 mg/kg, po; type: ADME, organism-based; design: time < 24 hr, dose 10 mg/kg, route oral; conditions: plasma
[6] = Oral bioavailability in fasted Wistar rat at 10 mg/kg; type: ADME, organism-based; conditions: in vivo
[7] = Tmax in fasted Wistar rat at 10 mg/kg, po; type: ADME, organism-based; design: dose 10 mg/kg, route oral; conditions: in vivo
[8] = Cmax in fasted Wistar rat at 10 mg/kg, po; type: ADME, organism-based; design: dose 10 mg/kg, route oral; conditions: in vivo
[9] = Clearance in Wistar rat at 10 mg/kg, iv; type: ADME, organism-based; design: dose 10 mg/kg, route intravenous; conditions: in vivo
[10] = Apparent volume of distribution in Wistar rat at 10 mg/kg, iv; type: ADME, organism-based; design: dose 10 mg/kg, route intravenous; conditions: in vivo, read-out: Vz
[11] = Half life in Wistar rat at 10 mg/kg, iv; type: ADME, organism-based; design: dose 10 mg/kg, route intravenous; conditions: in vivo
[12] = AUC (0 to 24 hrs) in Wistar rat at 10 mg/kg, iv; type: ADME, organism-based; design: time < 24 hr, dose 10 mg/kg, route intravenous; conditions: plasma
[13] = target: T1, 5-hydroxytryptamine receptor 1A (Homo sapiens, UniProt P08908); assay: Binding affinity to 5HT1A receptor
T1 sequence (P08908 whole entry): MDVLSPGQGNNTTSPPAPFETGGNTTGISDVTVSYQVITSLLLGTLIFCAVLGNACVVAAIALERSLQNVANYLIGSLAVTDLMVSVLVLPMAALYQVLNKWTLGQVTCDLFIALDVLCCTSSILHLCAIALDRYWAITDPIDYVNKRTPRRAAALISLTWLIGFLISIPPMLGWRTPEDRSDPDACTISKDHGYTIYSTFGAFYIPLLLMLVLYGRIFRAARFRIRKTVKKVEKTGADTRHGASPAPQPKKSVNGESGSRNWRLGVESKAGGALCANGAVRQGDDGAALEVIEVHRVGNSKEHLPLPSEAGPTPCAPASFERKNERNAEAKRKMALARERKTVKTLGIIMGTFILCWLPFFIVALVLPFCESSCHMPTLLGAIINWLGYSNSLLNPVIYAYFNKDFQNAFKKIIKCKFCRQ

[14] = target: 5-hydroxytryptamine receptor 4 (Homo sapiens, UniProt Q13639); assay: Binding affinity to 5HT4 receptor
[15] = target: T2, 5-hydroxytryptamine receptor 3A (Homo sapiens, UniProt P46098); assay: Binding affinity to 5HT3 receptor
T2 sequence (P46098 whole entry): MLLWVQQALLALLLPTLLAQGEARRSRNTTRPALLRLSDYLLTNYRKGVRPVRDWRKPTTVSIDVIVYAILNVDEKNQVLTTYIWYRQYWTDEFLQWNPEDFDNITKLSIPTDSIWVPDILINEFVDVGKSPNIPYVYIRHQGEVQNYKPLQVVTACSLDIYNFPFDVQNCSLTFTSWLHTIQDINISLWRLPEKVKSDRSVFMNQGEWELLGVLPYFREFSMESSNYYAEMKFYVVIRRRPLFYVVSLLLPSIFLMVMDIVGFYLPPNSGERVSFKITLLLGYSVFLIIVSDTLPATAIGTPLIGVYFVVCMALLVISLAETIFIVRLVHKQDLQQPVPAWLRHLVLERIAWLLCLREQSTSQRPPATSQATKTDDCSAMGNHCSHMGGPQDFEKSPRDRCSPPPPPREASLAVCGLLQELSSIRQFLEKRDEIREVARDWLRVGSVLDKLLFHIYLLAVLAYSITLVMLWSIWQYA

[16] = target: Sodium-dependent dopamine transporter (Homo sapiens, UniProt Q01959); assay: Binding affinity to dopamine transporter
[17] = target: Sodium-dependent serotonin transporter (Homo sapiens, UniProt P31645); assay: Binding affinity to SERT
[18] = target: T3, Alpha-1B adrenergic receptor (Homo sapiens, UniProt P35368); assay: Binding affinity to adrenergic alpha1B receptor
T3 sequence (P35368 whole entry): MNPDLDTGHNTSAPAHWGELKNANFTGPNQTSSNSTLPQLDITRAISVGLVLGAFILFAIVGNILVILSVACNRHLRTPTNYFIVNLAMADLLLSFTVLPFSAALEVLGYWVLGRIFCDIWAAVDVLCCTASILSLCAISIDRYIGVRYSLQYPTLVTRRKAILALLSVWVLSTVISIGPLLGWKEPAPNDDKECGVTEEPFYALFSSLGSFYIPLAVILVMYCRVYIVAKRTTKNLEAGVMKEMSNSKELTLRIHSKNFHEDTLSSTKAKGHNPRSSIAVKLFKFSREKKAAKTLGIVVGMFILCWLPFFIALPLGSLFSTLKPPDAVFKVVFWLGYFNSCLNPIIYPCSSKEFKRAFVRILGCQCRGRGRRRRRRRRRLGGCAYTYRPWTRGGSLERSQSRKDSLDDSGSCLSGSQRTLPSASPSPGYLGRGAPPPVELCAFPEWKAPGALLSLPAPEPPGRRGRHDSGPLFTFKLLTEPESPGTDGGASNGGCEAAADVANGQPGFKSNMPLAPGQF

Histamine H1 receptor = Histamine H1 receptor (Homo sapiens, UniProt P35367); assay: Binding affinity to histamine H1 receptor
D(2) dopamine receptor = D(2) dopamine receptor (Homo sapiens, UniProt P14416); assay: Binding affinity to dopamine D2 receptor
[19] = target: 5-hydroxytryptamine receptor 7 (Homo sapiens, UniProt P34969); assay: Binding affinity to 5HT7 receptor
[20] = target: T4, 5-hydroxytryptamine receptor 2C (Homo sapiens, UniProt P28335); assay: Binding affinity to 5HT2C receptor
T4 sequence (P28335 whole entry): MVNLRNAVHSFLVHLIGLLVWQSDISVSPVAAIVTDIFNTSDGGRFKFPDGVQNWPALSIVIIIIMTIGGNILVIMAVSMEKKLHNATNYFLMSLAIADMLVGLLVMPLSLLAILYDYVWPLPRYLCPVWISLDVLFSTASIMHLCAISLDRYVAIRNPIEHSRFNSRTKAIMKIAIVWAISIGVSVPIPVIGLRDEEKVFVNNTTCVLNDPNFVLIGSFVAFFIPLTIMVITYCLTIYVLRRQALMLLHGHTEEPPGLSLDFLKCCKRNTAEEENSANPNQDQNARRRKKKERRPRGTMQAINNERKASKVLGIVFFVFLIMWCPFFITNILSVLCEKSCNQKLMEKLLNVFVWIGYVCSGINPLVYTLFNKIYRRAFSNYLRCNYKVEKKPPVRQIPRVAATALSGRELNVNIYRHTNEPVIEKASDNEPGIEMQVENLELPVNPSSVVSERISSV

[21] = target: 5-hydroxytryptamine receptor 2A (Homo sapiens, UniProt P28223); assay: Binding affinity to 5HT2A receptor
[22] = Ratio of drug uptake in brain to plasma in Wistar rat at 10 mg/kg, po after 1 hr; type: ADME, organism-based; design: dose 10 mg/kg, route oral; conditions: read-out: BPR
[23] = target: 5-hydroxytryptamine receptor 6 (Homo sapiens) (UniProt P50406); assay: Antagonist activity at human recombinant 5HT6 receptor expressed in CHO cells assessed as inhibition of 5HT-induced luciferase activity after 4 hrs by reporter gene assay relative to control; type: functional, cell-based
[24] = target: 5-hydroxytryptamine receptor 6 (Homo sapiens) (UniProt P50406); assay: Antagonist activity at human recombinant 5HT6 receptor expressed in CHO cells assessed as inhibition of 5HT-induced luciferase activity after 4 hrs by reporter gene assay; type: functional, cell-based
Cytochrome P450 3A4 = Cytochrome P450 3A4 (Homo sapiens, UniProt P08684); assay: Inhibition of CYP3A4 in human liver microsomes using midazolam as substrate after 5 mins by LC-MS/MS analysis in presence of NADPH
[25] = Drug metabolism in human liver microsomes at 2.5 uM at 30 mins by LC-MS/MS analysis; type: ADME, Microsome; conditions: read-out: Drug metabolism
[26] = Drug metabolism in Wistar rat liver microsomes at 2.5 uM at 30 mins by LC-MS/MS analysis; type: ADME, Microsome; conditions: read-out: Drug metabolism
Cytochrome P450 2D6 = Cytochrome P450 2D6 (Homo sapiens, UniProt P10635); assay: Inhibition of CYP2D6 in human liver microsomes using dextromethorphan as substrate after 10 mins by LC-MS/MS analysis in presence of NADPH

Chain of 5-hydroxytryptamine receptor 6 (Homo sapiens) (P50406 whole entry): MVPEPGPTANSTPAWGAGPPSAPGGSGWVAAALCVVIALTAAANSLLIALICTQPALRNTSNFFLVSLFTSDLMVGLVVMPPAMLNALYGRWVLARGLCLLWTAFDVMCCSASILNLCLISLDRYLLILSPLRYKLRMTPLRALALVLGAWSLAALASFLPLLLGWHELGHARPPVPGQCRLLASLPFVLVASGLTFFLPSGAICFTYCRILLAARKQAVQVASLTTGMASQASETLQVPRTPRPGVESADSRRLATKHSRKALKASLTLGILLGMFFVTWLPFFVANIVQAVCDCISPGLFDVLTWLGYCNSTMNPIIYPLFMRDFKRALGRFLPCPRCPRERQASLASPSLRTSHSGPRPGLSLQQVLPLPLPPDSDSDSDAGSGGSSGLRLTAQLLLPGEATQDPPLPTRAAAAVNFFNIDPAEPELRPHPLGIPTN
Chain of 5-hydroxytryptamine receptor 7 (P34969 whole entry): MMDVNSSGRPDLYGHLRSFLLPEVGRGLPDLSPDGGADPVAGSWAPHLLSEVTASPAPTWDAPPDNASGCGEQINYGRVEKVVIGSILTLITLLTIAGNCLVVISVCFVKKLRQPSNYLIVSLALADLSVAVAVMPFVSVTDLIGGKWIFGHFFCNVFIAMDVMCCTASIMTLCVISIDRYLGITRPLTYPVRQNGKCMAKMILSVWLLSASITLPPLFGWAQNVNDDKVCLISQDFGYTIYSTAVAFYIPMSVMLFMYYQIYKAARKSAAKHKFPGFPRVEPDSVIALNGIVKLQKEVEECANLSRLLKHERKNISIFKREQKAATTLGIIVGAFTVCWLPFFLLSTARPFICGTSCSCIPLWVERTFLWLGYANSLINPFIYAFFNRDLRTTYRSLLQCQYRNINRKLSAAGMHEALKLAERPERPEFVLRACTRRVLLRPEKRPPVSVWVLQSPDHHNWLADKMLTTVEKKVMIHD
Chain of Voltage-gated inwardly rectifying potassium channel KCNH2 (Q12809 whole entry): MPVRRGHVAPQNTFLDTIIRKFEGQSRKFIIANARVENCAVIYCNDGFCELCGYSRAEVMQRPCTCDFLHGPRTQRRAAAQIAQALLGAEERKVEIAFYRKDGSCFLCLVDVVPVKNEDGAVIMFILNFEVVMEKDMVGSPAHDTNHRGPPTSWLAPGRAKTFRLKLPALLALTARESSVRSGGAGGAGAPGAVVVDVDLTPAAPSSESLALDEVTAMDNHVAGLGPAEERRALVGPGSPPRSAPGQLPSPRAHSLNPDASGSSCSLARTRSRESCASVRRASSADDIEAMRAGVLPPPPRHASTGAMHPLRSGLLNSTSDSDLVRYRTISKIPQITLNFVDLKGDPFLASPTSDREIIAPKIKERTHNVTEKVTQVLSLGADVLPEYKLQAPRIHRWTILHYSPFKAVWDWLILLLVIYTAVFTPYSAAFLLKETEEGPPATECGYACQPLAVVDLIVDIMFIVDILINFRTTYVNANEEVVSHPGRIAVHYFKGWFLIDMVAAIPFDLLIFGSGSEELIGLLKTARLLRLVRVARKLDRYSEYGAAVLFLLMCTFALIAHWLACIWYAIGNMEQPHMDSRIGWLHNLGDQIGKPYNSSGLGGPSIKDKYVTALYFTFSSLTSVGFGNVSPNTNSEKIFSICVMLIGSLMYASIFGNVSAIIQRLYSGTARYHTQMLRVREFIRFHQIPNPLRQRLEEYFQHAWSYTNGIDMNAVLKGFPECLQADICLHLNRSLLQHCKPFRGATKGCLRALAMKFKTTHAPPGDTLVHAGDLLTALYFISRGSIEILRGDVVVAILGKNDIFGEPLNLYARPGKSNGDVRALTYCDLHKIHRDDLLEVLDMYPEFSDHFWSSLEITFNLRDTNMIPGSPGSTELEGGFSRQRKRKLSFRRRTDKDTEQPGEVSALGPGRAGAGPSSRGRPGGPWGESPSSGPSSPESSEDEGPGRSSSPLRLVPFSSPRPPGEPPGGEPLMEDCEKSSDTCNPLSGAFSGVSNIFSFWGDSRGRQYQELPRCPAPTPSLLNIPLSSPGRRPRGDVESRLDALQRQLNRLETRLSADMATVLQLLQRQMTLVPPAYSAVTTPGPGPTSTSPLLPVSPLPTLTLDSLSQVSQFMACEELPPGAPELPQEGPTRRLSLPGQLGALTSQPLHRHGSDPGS
Chain of 5-hydroxytryptamine receptor 2A (P28223 whole entry): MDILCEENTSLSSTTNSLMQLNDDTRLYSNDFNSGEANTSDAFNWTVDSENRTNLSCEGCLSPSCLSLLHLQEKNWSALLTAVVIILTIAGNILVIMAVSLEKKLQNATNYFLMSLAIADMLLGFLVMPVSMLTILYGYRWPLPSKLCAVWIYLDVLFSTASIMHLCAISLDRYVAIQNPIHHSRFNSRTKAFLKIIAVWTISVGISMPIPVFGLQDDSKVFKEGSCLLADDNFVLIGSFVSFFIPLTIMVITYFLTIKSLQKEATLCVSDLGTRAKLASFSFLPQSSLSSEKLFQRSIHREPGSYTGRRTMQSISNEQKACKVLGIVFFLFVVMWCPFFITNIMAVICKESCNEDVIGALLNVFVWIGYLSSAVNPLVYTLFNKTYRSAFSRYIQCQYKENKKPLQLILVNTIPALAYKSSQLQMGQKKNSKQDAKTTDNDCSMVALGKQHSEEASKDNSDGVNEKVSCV
Chain of Sodium-dependent dopamine transporter (Q01959 whole entry): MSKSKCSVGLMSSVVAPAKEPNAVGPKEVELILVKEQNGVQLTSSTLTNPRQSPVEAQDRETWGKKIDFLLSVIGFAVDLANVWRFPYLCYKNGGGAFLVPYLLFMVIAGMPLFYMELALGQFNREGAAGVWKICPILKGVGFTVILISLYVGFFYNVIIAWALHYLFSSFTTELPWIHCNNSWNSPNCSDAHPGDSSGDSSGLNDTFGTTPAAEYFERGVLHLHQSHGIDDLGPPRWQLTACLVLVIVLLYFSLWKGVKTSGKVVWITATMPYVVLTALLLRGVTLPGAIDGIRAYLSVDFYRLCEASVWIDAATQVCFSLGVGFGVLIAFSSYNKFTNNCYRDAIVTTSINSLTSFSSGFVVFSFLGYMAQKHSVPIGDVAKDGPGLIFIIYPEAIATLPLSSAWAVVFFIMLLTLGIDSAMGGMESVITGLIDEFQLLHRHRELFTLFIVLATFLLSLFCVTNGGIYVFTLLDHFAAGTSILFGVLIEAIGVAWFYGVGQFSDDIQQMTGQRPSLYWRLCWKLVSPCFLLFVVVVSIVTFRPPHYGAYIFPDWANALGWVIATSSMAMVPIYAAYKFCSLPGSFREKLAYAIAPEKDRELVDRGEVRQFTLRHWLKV
Chain of D(2) dopamine receptor (P14416 whole entry): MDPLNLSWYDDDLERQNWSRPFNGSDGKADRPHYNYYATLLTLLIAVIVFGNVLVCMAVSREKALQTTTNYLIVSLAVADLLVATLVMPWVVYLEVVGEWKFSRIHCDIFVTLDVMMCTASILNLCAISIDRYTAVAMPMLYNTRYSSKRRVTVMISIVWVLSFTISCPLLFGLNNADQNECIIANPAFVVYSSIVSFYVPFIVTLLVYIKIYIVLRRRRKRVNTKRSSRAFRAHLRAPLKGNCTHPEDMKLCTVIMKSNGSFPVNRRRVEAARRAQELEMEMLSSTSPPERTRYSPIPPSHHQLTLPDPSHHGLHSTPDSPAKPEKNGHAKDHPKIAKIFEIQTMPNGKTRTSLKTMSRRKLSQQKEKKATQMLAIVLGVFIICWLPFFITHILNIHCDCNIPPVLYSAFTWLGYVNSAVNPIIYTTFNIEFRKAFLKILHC
Chain of Histamine H1 receptor (P35367 whole entry): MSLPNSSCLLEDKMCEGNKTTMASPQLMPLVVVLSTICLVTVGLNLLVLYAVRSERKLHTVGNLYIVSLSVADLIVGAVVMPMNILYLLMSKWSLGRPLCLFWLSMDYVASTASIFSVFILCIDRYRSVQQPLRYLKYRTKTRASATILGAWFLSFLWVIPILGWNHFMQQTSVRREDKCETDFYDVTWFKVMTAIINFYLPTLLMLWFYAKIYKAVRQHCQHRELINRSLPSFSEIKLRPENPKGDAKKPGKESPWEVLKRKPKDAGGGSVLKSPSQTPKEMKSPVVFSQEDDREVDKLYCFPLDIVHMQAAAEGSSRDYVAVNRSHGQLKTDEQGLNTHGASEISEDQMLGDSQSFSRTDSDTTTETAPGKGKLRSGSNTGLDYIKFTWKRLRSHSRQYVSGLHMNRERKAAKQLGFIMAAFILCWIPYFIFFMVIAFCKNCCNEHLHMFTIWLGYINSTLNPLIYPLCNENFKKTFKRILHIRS
Chain of Cytochrome P450 3A4 (P08684 whole entry): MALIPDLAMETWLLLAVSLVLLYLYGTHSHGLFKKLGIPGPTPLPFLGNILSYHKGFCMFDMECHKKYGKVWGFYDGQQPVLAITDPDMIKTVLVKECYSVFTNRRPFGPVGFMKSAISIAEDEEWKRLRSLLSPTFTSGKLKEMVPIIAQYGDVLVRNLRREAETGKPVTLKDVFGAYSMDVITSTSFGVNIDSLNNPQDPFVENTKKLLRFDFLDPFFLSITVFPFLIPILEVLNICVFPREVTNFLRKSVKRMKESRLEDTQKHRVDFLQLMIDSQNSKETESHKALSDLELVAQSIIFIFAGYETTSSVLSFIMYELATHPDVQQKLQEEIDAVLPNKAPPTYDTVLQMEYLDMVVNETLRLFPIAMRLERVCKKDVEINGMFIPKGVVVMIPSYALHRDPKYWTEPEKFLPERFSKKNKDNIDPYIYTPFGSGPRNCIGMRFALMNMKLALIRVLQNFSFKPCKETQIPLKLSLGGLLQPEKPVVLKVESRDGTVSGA
Chain of 5-hydroxytryptamine receptor 4 (Q13639 whole entry): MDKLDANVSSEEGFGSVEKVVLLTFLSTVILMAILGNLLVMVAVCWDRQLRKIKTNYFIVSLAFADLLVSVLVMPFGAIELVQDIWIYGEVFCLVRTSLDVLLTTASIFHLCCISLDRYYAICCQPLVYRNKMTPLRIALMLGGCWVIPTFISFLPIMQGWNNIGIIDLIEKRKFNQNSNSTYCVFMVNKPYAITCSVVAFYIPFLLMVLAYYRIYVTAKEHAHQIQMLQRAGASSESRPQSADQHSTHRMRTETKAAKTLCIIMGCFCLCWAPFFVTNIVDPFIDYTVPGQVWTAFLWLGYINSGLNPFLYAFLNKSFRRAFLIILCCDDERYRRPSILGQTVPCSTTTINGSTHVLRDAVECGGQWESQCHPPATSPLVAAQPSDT

AUC(0-t) at 24 h [5]: 2090 ng·h/mL
bioavailability [6]: 75%
Tmax [7]: 1.67 h
Cmax [8]: 296 ng/mL
clearance [9]: 59 mL/min/kg
Vd [10]: 11 L/kg
half-life [11]: 2.2 h
AUC(0-t) at 24 h [12]: 2760 ng·h/mL
EC50 [13]: > 1000 nM
EC50 [14]: > 10000 nM
IC50 [15]: > 10000 nM
Ki [16]: 2900 nM
Ki [17]: 1940 nM
Ki [18]: 955 nM
Ki (Histamine H1 receptor): 682 nM
Ki (D(2) dopamine receptor): 303 nM
Ki [19]: 6370 nM
Ki [20]: 3120 nM
Ki [21]: 536 nM
Kp at 1 h [22]: 3.8
Imax [23]: 100%
Kb [24]: 0.02 nM
IC50 (Cytochrome P450 3A4): 6460 nM
metabolised at 0.5 h, 2.5 µM [25]: 0%
metabolised at 0.5 h, 2.5 µM [26]: 40%
IC50 (Cytochrome P450 2D6): 14700 nM
SMILES: COc1ccc(S(=O)(=O)n2cc(C)c3cc(Cl)ccc32)cc1NC1CCN(C)CC1
Ki [1]: 800 nM
Activity (Rattus norvegicus [2]): Toxic
Activity (Rattus norvegicus [3]): Active
Activity (Rattus norvegicus [4]): Active
